In patent US4477446A, “1-Benzazepines and their pharmaceutical uses” (USV Pharmaceutical Corporation, priority 1983, dated 1984):
pIC50: −log10 of the molar value. Where two headings read alike, the source gives them in different places.

How the values were obtained:
[1] = test system: rat peritoneal mast cells; test: Inhibition of histamine release from rat mast cells; assay type: cell-based; settings: for pIC50: Rattus norvegicus, Mast cell, read-out: I50 of antigen-induced secretion of histamine
Method: The compound of the present invention was also tested for inhibition of histamine release from rat mast cells by the method of Khandwala et al., Int. Archs Allergy appl. Immun. 69:159-168 (1982). Rat peritoneal mast cells contain receptors for IgE antibodies as well as granules which contain preformed mediators of anaphylaxis. Immunologically stimulated secretion of histamine from these cells has long been used as a model for testing antiallergic drugs. The standard asthma prophylactic drug disodium cromoglycate is a potent inhibitor in this model. A brief summary of the method is as follows:
Freshly harvested rat peritoneal mast cells were passively sensitized in vitro with rat anti-ovalbumin serum. Spontaneous histamine release or SR (in the absence of antigen) and anaphylactically-induced histamine release or AIR (in the presence of antigen) were measured after 15 minutes of incubation. Both the histamine released into the incubation medium and the residual histamine extracted from rat mast cells were measured fluorometrically.

[2] = test system: human basophils; test: Inhibition of histamine release from human basophils; assay type: cell-based; settings: 5 minutes preincubation before anti-human IgE challenge; read-out: calculated concentration at which 50% of anti-IgE-induced histamine release was inhibited
Method: 1H-benz(f)azepine-2,5-dione was also tested by a method which measures inhibition of histamine release from human basophils. The basophil is a circulating granulocyte that contains preformed mediators of anaphylaxis. These mediators are secreted after immunological stimulation of the IgE-Fc receptor system. The human basophil has thus been employed as a model cell system for asthma and allergy. The effect of the compound upon anti-IgE-medicated secretion of histamine from human basophils prepared from venous blood was carried out according to Siraganian, R. and Brodsky, M. J., Automated Histamine Analysis for in vitro testing, J. Allergy Clin. Immunol. 57:525-540 (1976). The summary of the method follows:
A fraction containing basophils was isolated by allowing freshly drawn human blood to sediment in the presence of dextran, saline and ethylenediamine tetraacetate. […] Both the histamine secreted after the challenge and that remaining in the cells were determined by an automated fluorometric assay. The influence of 1H-benz(f)azepine-2,5-dione on anti-IgE-induced release of histamine (AIR) was assessed by preincubation of the cells with the test compound for 5 minutes before immunological challenge. […] The results were expressed as the percent inhibition of AIR or as I50 value.

[3] = target: T1, binding of IgE to mast cells (cellular receptor) (Rattus norvegicus, UniProt P12371); test: Binding of IgE to mast cells (125I-labelled rat IgE, mixed peritoneal cells)
T1 construct: endogenous in cells; host or cells: mixed peritoneal cells (containing mast cells)
T1 sequence (P12371 24-245): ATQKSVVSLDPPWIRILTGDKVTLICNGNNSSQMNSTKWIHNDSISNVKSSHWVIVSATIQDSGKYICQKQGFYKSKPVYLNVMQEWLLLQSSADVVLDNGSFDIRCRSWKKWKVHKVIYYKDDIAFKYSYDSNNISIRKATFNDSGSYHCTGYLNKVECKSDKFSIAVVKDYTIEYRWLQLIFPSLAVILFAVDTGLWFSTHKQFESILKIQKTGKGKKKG
T1 sequence (P13386 1-243 partner): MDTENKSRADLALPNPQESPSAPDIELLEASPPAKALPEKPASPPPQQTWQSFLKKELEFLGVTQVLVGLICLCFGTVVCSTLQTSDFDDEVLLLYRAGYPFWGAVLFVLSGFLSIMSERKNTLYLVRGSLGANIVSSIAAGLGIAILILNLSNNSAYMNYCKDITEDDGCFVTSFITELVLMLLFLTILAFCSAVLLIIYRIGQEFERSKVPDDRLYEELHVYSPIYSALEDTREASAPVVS
T1 sequence (P20411 19-86 partner): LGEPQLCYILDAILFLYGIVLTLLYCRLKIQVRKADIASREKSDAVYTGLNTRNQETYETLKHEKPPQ
Method: The test used to determine this activity was the method of S. M. Coutts et al. (Journal of Pharm. Sci., 68:353 (1979)). Briefly described, the method is as follows:
IgE, isolated from the ascitic fluid of a transplantable rat IgE immunocytoma, was labeled with iodine-125 under mild conditions employing the Bolton-Hunter reagent. The antibody was incubated with mixed peritoneal cells at 37° C., and the cell-bound IgE was separated from unbound label by sedimentation through an 8% sucrose-polymer solution in microsediment tubes. Conditions for the interaction of 3nM IgE with 3×10^5 mast cells in 150 μl were: incubation time, 2 hrs; pH, 6.5-7.0; and ionic strength, equivalent to 150 mM NaCl. Mixed peritoneal cells bind IgE with an affinity equal to that of purified mast cells.

[4] = test system: guinea pig lung slices; test: Inhibition of histamine release from guinea pig lung slices; assay type: cell-based; settings: Cavia porcellus; passively sensitized lung slices, 5 minutes preincubation; read-out: concentration at which 50% of antigen-induced histamine release was inhibited (I50)
From the text: 1H-benz(f)azepine-2,5-dione was also found to inhibit histamine-release from guinea pig lung slices over a wide concentration range. Immunologically mediated secretion of histamine from guinea pig lung slices is mediated through the IgG1 class of antibodies, as opposed to the IgE-class of antibodies which control secretion from rat mast cells. The affect of the compound of the present invention on antigen-induced release of histamine from passively sensitized guinea pig lung slices was determined according to the procedure of Khandwala et al., Int. Archs. Allergy Appl. Immunol. 59:34-44(1979). A brief description of the method follows:
Guinea pig lung slices were passively sensitized in vitro with guinea pig anti-ovalbumin serum. […] Both the histamine released into the incubation media and the residual histamine extracted from the lung slices were measured fluorometrically. Both spontaneous and antigen-induced histamine releases were expressed as % of total extractable histamine in the lung slices. Net antigen-induced histamine release (AIR) was obtained by subtracting the spontaneous release from that in the presence of the antigen. The effect of the test compound on both SR and AIR was determined following 5 minutes preincubation of sensitized lung slices with the test compound. The concentration of the test compound required for 50% inhibition of AIR (I50) was determined.

[5] = 0 h, compound added simultaneously (at 0 minutes) with antigen
[6] = cells and drug preincubated for 5 minutes before adding antigen

| pIC50 [1, 5] | pIC50 [2] | pIC50 [1, 6] | pIC50 ([3]; 3 nM IgE, 3×10^5 mast cells, 2 hrs, 37° C., read-out: concentration at which 50% inhibition of IgE binding was observed (I50)) | inhibition at 30 µM ([3]; 30 μM, average of two experiments) [%] | apparent affinity constant KA of IgE for its cellular receptor ([3]; in presence of 30 μM test compound, control KA 4.4×10^8 M^-1, Scatchard analysis) [M⁻¹] | SMILES | I50 of antigen-induced secretion of histamine [1, 6] | pIC50 [4] |
| --- | --- | --- | --- | --- | --- | --- | --- | --- |
| 5.52 |  |  |  |  |  | O=C(O)c1cc(=O)c2c(OCC(O)COc3cccc4oc(C(=O)O)cc(=O)c34)cccc2o1 [disodium cromoglycate, reference compound] | inactive |  |
| 5.74 | 5.70 | 5.30 | 4.92 | 70 | 9.4e+07 | O=c1ccc(=O)c2ccccc2[nH]1 [1H-benz(f)azepine-2,5-dione, 1H-Benz(f)azepine-2,5-dione] |  | 4.70 |
